Measurements taken from patent US20160101148A1, “TREATMENT AND PREVENTION OF BACTERIAL SKIN INFECTIONS USING ORITAVANCIN” (priority 2013, published 2016).
≈ marks a conversion by molar mass, not a printed value. Where two headings read alike, the source gives them in different places.

Tests used:
[1] = system: S. aureus strains (14 mecC MRSA, 2 mecA MRSA, ATCC 29213 MSSA); assay: In vitro time-kill assays at free peak and free trough concentrations; assay type: cell-based, Staphylococcus aureus; conditions: for Time to cidality (≧3 log decrease): daptomycin ƒCmax 4 mg/L; for Change in cell density at 24 h relative to starting inoculum: daptomycin ƒCmin 0.5 mg/L
Procedure: Viable cell count was determined by serial dilution plating, including the use of 25 g/L charcoal suspension to limit antibiotic carryover. […] Time-kill assays were repeated at least twice independently; results presented are from a representative experiment.
Doubling dilution concentrations of comparator agents were likewise chosen to approximate their fCmax and fCmin levels in plasma when administered at approved dosages for complicated skin and skin structure infections, using pharmacokinetic data and protein binding values from their respective package inserts (DAP [Cubicin®]; LZD [Zyvox®]; VAN [Vancocin®]; Table 3).

[2] = system: S. aureus strains (14 mecC MRSA, 2 mecA MRSA, ATCC 29213 MSSA); assay: Broth microdilution MIC determination; assay type: cell-based, Staphylococcus aureus; conditions: Staphylococcus aureus; for MIC: read-out: MIC; for MIC90: mecC strains, read-out: MIC90
Procedure: The S. aureus (SA) strains used in this study were: ATCC 43300 (mecA methicillin-resistant SA [MRSA]); ATCC 33591 (mecA MRSA), ATCC 29213 (methicillin-susceptible SA; quality control strain) and 14 mecC MRSA obtained from the Staten Serum Institute (Copenhagen, Denmark).
Tests with oritavancin included polysorbate-80 (final test concentration of 0.002%) as described (CLSI 2012a; Arhin et al., 2008). Tests with daptomycin included CaCl2 at a concentration of 50 mg/L. MICs were read after 24 h incubation.

[3] = ATCC 29213 / ATCC 33591 / MRSA / MSSA, ATCC 33591 MRSA (mecA)
[4] = ATCC 29213 / ATCC 43300 / MRSA / MSSA, ATCC 43300 MRSA (mecA)

CCCCCCCCCC(=O)N[C@@H](Cc1c[nH]c2ccccc12)C(=O)N[C@H](CC(N)=O)C(=O)N[C@@H](CC(=O)O)C(=O)N[C@@H]1C(=O)NCC(=O)N[C@@H](CCCN)C(=O)N[C@@H](CC(=O)O)C(=O)N[C@H](C)C(=O)N[C@@H](CC(=O)O)C(=O)NCC(=O)N[C@H](CO)C(=O)N[C@@H]([C@H](C)CC(=O)O)C(=O)N[C@@H](CC(=O)c2ccccc2N)C(=O)O[C@@H]1C [Daptomycin, daptomycin]
Time to cidality (≧3 log decrease) ([1]; 57147 (mecC)): 1-2 h | Change in cell density at 24 h relative to starting inoculum ([1]; 57147 (mecC)): +2.7 log CFU/mL | Time to cidality (≧3 log decrease) ([1]; 70611 (mecC)): 1-2 h | Change in cell density at 24 h relative to starting inoculum ([1]; 70611 (mecC)): +1.5 log CFU/mL | Change in cell density at 24 h relative to starting inoculum ([1]; 73348 (mecC)): +2.6 log CFU/mL | Time to cidality (≧3 log decrease) ([1]; 73415 (mecC)): 2-4 h | Change in cell density at 24 h relative to starting inoculum ([1]; 73415 (mecC)): +1.5 log CFU/mL | Time to cidality (≧3 log decrease) ([1]; 73617 (mecC)): 1-2 h | Change in cell density at 24 h relative to starting inoculum ([1]; 73617 (mecC)): +3.4 log CFU/mL | Time to cidality (≧3 log decrease) ([1]; 73829 (mecC)): 1-2 h | Change in cell density at 24 h relative to starting inoculum ([1]; 73829 (mecC)): +2.1 log CFU/mL | Time to cidality (≧3 log decrease) ([1]; 75814 (mecC)): 1-2 h | Change in cell density at 24 h relative to starting inoculum ([1]; 75814 (mecC)): +3.6 log CFU/mL | Time to cidality (≧3 log decrease) ([1]; 76918 (mecC)): 1-2 h | Change in cell density at 24 h relative to starting inoculum ([1]; 76918 (mecC)): +1.5 log CFU/mL | Time to cidality (≧3 log decrease) ([1]; 77431 (mecC)): 1-2 h | Change in cell density at 24 h relative to starting inoculum ([1]; 77431 (mecC)): +1.9 log CFU/mL | Change in cell density at 24 h relative to starting inoculum ([1]; 77601 (mecC)): +0.1 log CFU/mL | Time to cidality (≧3 log decrease) ([1]; 77950 (mecC)): 1-2 h | Change in cell density at 24 h relative to starting inoculum ([1]; 77950 (mecC)): +0.9 log CFU/mL | Time to cidality (≧3 log decrease) ([1]; 77964 (mecC)): 1-2 h | Change in cell density at 24 h relative to starting inoculum ([1]; 77964 (mecC)): +1.2 log CFU/mL | Time to cidality (≧3 log decrease) ([1]; 78085 (mecC)): 2-4 h | Change in cell density at 24 h relative to starting inoculum ([1]; 78085 (mecC)): +1.5 log CFU/mL | Change in cell density at 24 h relative to starting inoculum ([1]; 78651 (mecC)): +1.6 log CFU/mL | Time to cidality (≧3 log decrease) ([1]; ATCC 29213 (MSSA)): 2-4 h | Change in cell density at 24 h relative to starting inoculum ([1]; ATCC 29213 (MSSA)): +3.9 log CFU/mL | Change in cell density at 24 h relative to starting inoculum ([1]; ATCC 33591 (mecA)): +3.8 log CFU/mL | Time to cidality (≧3 log decrease) ([1]; ATCC 43300 (mecA)): 1-2 h | Change in cell density at 24 h relative to starting inoculum ([1]; ATCC 43300 (mecA)): +3.6 log CFU/mL | Activity in time-kill assay ([1]; S. aureus strains, fCmin): little to no effect or was bacteriostatic | MIC ([2]; 57147 MRSA (mecC)): 0.5 µg/mL (≈ 0.309 µM) | MIC ([2]; 70611 MRSA (mecC)): 0.5 µg/mL (≈ 0.309 µM) | MIC ([2]; 73348 MRSA (mecC)): 0.5 µg/mL (≈ 0.309 µM) | MIC ([2]; 73415 MRSA (mecC)): 1 µg/mL (≈ 0.617 µM) | MIC ([2]; 73617 MRSA (mecC)): 1 µg/mL (≈ 0.617 µM) | MIC ([2]; 73829 MRSA (mecC)): 0.5 µg/mL (≈ 0.309 µM) | MIC ([2]; 75814 MRSA (mecC)): 0.5 µg/mL (≈ 0.309 µM) | MIC ([2]; 76918 MRSA (mecC)): 0.5 µg/mL (≈ 0.309 µM) | MIC ([2]; 77431 MRSA (mecC)): 1 µg/mL (≈ 0.617 µM) | MIC ([2]; 77601 MRSA (mecC)): 0.5 µg/mL (≈ 0.309 µM) | MIC ([2]; 77950 MRSA (mecC)): 0.5 µg/mL (≈ 0.309 µM) | MIC ([2]; 77964 MRSA (mecC)): 0.5 µg/mL (≈ 0.309 µM) | MIC ([2]; 78085 MRSA (mecC)): 1 µg/mL (≈ 0.617 µM) | MIC ([2]; 78651 MRSA (mecC)): 0.5 µg/mL (≈ 0.309 µM) | MIC ([2]; ATCC 29213 (MSSA)): 0.5 µg/mL (≈ 0.309 µM) | MIC [2, 3]: 1 µg/mL (≈ 0.617 µM) | MIC [2, 4]: 0.5 µg/mL (≈ 0.309 µM) | MIC ([2]; all strains tested): 0.5 to 1 µg/mL (≈ 0.309 to 0.617 µM) | MIC90 [2]: 1 µg/mL (≈ 0.617 µM)

CC(=O)NC[C@H]1CN(c2ccc(N3CCOCC3)c(F)c2)C(=O)O1 [Linezolid, linezolid]
Activity in time-kill assay ([1]; all tested strains, both fCmin and fCmax): little to no effect or was bacteriostatic | MIC ([2]; 57147 MRSA (mecC)): 2 µg/mL (≈ 5.93 µM) | MIC ([2]; 70611 MRSA (mecC)): 2 µg/mL (≈ 5.93 µM) | MIC ([2]; 73348 MRSA (mecC)): 2 µg/mL (≈ 5.93 µM) | MIC ([2]; 73415 MRSA (mecC)): 2 µg/mL (≈ 5.93 µM) | MIC ([2]; 73617 MRSA (mecC)): 2 µg/mL (≈ 5.93 µM) | MIC ([2]; 73829 MRSA (mecC)): 2 µg/mL (≈ 5.93 µM) | MIC ([2]; 75814 MRSA (mecC)): 2 µg/mL (≈ 5.93 µM) | MIC ([2]; 76918 MRSA (mecC)): 2 µg/mL (≈ 5.93 µM) | MIC ([2]; 77431 MRSA (mecC)): 2 µg/mL (≈ 5.93 µM) | MIC ([2]; 77601 MRSA (mecC)): 2 µg/mL (≈ 5.93 µM) | MIC ([2]; 77950 MRSA (mecC)): 2 µg/mL (≈ 5.93 µM) | MIC ([2]; 77964 MRSA (mecC)): 2 µg/mL (≈ 5.93 µM) | MIC ([2]; 78085 MRSA (mecC)): 2 µg/mL (≈ 5.93 µM) | MIC ([2]; 78651 MRSA (mecC)): 2 µg/mL (≈ 5.93 µM) | MIC ([2]; ATCC 29213 (MSSA)): 2 µg/mL (≈ 5.93 µM) | MIC [2, 3]: 2 µg/mL (≈ 5.93 µM) | MIC [2, 4]: 1 µg/mL (≈ 2.96 µM) | MIC ([2]; all strains tested): 1 to 2 µg/mL (≈ 2.96 to 5.93 µM) | MIC90 [2]: 2 µg/mL (≈ 5.93 µM)
